Reference: patent US11596692B1 (Incyte Corporation, priority 2018, dated 2023)

Key:
PD-L1 [1] = molecular target: T1, PD-L1 (Homo sapiens (Human), UniProt Q9NZQ7); test: Indirect whole blood PD-L1 internalization assay; type: cell-based; conditions: interferon γ, 18 hours, CD14+ gated
Description: To determine PD-L1 internalization in human whole blood, normal human blood (Biological Specialty Corp, Colmar. Pa.) was incubated in the presence or absence of a concentration range of test compounds and 1 ng/ml human interferon γ (R&D Systems Inc. Minn. Minn.) in a 96 well round bottom plate (Corning, Corning, N.Y.) for 18 hours at 37° C. Blood was then transferred into 96 well “2 ml Assay Block” (Corning, Corning N.Y.) and stained with PD-L1 (MIH1, eBioscience; or BD Biosciences San Jose, Calif.), CD14 (Life Technologies, Carlsbad, Calif.) for 30 minutes in the dark at room temperature. Whole Blood/red cells were lysed/fixed (lysis buffer BD Biosciences) for 5 minutes at 37° C. in dark and then centrifuged at 1600 RPM for 5 minutes and cells were transferred into 96 well round bottom plates (Corning). Cells were gated on CD14+ (BD Biosciences) and PD-L1 expression determined by mean fluorescence intensity (MFI) (BD LSRFortessa™ X-20). IC50 determination was performed by fitting the curve of compound percent inhibition versus the log of the compound concentration using the GraphPad Prism 7.0 software.

PD-1/PD-L1 = PD-1/PD-L1 (Homo sapiens (Human), UniProt Q9NZQ7); test: PD-1/PD-L1 binding assay (Alphascreen)
Description: Binding assays were conducted in a low volume white 384-well polystyrene plate in a final volume of 20 μL. Compounds to be analyzed were first serially diluted in DMSO and added to the plate wells before the addition of other reaction components. The final concentration of DMSO in the assay was 1%. The assay was carried out at 25° C. in the PBS buffer (pH 7.4) with 0.05% Tween-20 and 0.1% BSA. Recombinant human PD-L1 protein (19-238) with a His-tag at the C-terminus was purchased from AcroBiosystems (PD1-H5229). Recombinant human PD-1 protein (25-167) with Fc tag at the C-terminus was also from AcroBiosystems (PD1-H5257). PD-L1 and PD-1 proteins were diluted in the assay buffer (final concentration—0.67 and 0.20 nM respectively) and 10 μL was added to the plate well. Plates were centrifuged and proteins were preincubated with compounds for 40 minutes. The incubation was followed by the addition of 10 μL of assay buffer supplemented with Alphascreen Ni chelate donor beads (PerkinElmer—AS101D) and Protein A Acceptor beads (PerkinElmer—6760137) at final concentration 2.5 μg/mL under reduced light. After plate sealing, the plate was incubated in the dark at room temperature for 120 minutes before reading on a PHERAstar FS plate reader (BMG Labtech). IC50 determination was performed by fitting the curve of percent control activity versus the log of the compound concentration using the GraphPad Prism 5.0 software.

PD-L1 [2] = molecular target: T1, PD-L1; test: PD-L1 surface levels on HEK293T STING reporter cells, high PD-L1; type: cell-based
Description: To determine PD-L1 expression on HEK cells after treatment of PD-L1-small molecule conjugated STING agonists, cells were harvested at 20 hours post-treatment. Single cell suspensions were then stained with phycoerythrin-conjugated anti-PD-L1 antibody (BD Bioscience), and the PD-L1 expression were then analyzed by flow cytometry. Mean fluorescence intensity was used as the relative level of surface PD-L1 expression on cells (FIG. 1 and Table 6).
Also, cells were stained with PE-conjugated anti-human PD-L1 antibody to determine surface PD-L1 expression. Cell acquisition was performed on BD LSRFortessa X-20 (BD Biosciences). Data was analyzed using FlowJo software. IC50 values were calculated using Prism Software.

[3] = system: IRF3 activation in PD-L1 low HEK293T STING reporter cell line; test: IRF3 activation in HEK293T STING reporter cells, low PD-L1; type: cell-based, human; conditions: 20 hours, read-out: IRF Activation EC50 (nM), Low PD-L1
Description: (§1) HEK293T STING reporter cell line was purchased from Invivogen and expressed low level of PD-L1. This cell line was then engineered at Incyte Research Institute to overexpress human PD-L1. Both PD-L1 high and PD-L1 low HEK293T cell lines were plated at 100,000 cells/100 μL/well in 10% fetal calf serum-containing DMEM culture medium in a 96-well flat bottom plate. Serial dilutions of PD-L1 small molecule-conjugated STING agonists were then added to the corresponding wells, and incubated for 20 hours at 37° C. In a competition study setting, 1 μM of a PD-L1 small molecule was added in the corresponding wells to compete with the binding of PD-L1 small molecule-conjugated STING agonists. At the end of the incubation, the culture supernatants were carefully removed from each well, and the amount of IRF3 activation was determined by adding Quanti-Blue substrate in accordance with the manufacturer's protocol.
(§2) 293T-Dual hSTING-R232 (ISG/KI-IFNb) cells that were generated from 293T-Dual Null (ISG/KI-IFNb) cells by stable transfection of the R232 isoform of human STING were purchased from Invivogen (Invivogen #293d-r232).
(§3) This cell line expresses an ISRE-inducible SEAP (secreted embryonic alkaline phosphatase) reporter construct, which monitors the activation of interferon regulatory factor (IRF) and its binding to ISRE (IFN-stimulated response elements). These reporter cells express low level of PD-L1. Human PD-L1 was then overexpressed in these cells through stable transfection.
(§4) These 293T-Dual hSTING-R232 reporter cells as well as293T-Dual hSTING-R232 reporter cells overexpressing huPD-L1 were treated with various concentrations of STING compounds for 20 hours. After 20 hours, interferon regulatory factor (IRF) activity was assessed by measuring SEAP levels in the supernatant using QUNTI-Blue. EC50 values were generated by curve fit in Prism software.

[4] = system: IRF3 activation in PD-L1 high HEK293T STING reporter cell line; test: IRF3 activation in HEK293T STING reporter cells, high PD-L1; type: cell-based, human; conditions: high PD-L1 cells, 20 hours; read-out: IRF Activation EC50 (nM), High PD-L1
Description: as §1, §2, §3, §4

T1 sequence (Q9NZQ7 19-290): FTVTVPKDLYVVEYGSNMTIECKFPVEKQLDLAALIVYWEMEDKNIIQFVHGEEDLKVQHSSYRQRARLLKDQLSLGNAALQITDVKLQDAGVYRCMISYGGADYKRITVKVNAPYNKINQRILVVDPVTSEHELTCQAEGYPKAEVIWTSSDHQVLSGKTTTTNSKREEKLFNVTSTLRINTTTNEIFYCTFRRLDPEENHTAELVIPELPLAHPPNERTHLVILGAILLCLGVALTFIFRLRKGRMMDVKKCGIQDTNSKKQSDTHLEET
PD-1/PD-L1, sequence (Q9NZQ7 19-238): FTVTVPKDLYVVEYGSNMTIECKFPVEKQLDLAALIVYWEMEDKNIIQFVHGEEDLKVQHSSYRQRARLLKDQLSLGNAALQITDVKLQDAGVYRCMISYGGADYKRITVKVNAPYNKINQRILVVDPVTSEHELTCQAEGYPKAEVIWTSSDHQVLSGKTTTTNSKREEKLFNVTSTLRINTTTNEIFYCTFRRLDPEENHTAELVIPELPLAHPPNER

| Structure (SMILES) | IC50 (PD-L1 [1]) [nM] | IC50 (PD-1/PD-L1) [nM] | IC50 (PD-L1 [2]; high PD-L1 cells, 20 hours, read-out: PD-L1 Internalization IC50 (nM), High PD-L1) [nM] | IC50 (PD-L1 [2]) [nM] | EC50 [3] [nM] | EC50 [4] [nM] |
| --- | --- | --- | --- | --- | --- | --- |
| Cc1c(Nc2nccc3cc(CN4CC[C@@H](O)C4)cnc23)cccc1-c1cccc(-c2nc3cc(CN4CC[C@@H](C(=O)O)C4)cc(C#N)c3o2)c1C [Example P15] | 100 to 1000 | 0.1 to 1 |  |  |  |  |
| CCn1nc(C)cc1C(=O)Nc1nc2cc(C(N)=O)cc(OC)c2n1C/C=C/Cn1c(NC(=O)c2cc(C)nn2CC)nc2cc(C(N)=O)cc(OCCCNC(=O)[C@H](CC(=O)O)NC(=O)[C@H](CC(=O)O)NC(=O)[C@H](CCCNC(=N)N)NC(=O)[C@H](CC(=O)O)NC(=O)CCNC(=O)C3CCN(Cc4cc(C#N)c5oc(-c6cccc(-c7cccc(Nc8nc(C(F)F)nc9cc(CN%10CC[C@@H](O)C%10)cnc89)c7C)c6C)nc5c4)CC3)c21 [Example 8] |  |  |  | 200 to 1000 | 50 to 200 | < 50 |
| CCn1nc(C)cc1C(=O)Nc1nc2cc(C(N)=O)cc(OC)c2n1C/C=C/Cn1c(NC(=O)c2cc(C)nn2CC)nc2cc(C(N)=O)cc(OCCCNC(=O)[C@H](CC(=O)O)NC(=O)[C@H](CC(=O)O)NC(=O)CCCN3CCc4c(nc(C(=O)Nc5cccc(-c6cccc(NC(=O)c7nc8c(n7C)CCN(CCCC(=O)O)C8)c6Cl)c5Cl)n4C)C3)c21 [Example 10] |  |  | < 50 |  | 50 to 200 | < 50 |
| CCn1nc(C)cc1C(=O)Nc1nc2cc(C(N)=O)cc(OC)c2n1C/C=C/Cn1c(NC(=O)c2cc(C)nn2CC)nc2cc(C(N)=O)cc(OCCCNC(=O)[C@H](CC(=O)O)NC(=O)[C@H](CC(=O)O)NC(=O)[C@H](CC(=O)O)NC(=O)[C@H](CCCNC(=N)N)NC(=O)CCCN3CCc4c(nc(C(=O)Nc5cccc(-c6cccc(NC(=O)c7nc8c(n7C)CCN(CCCC(=O)O)C8)c6Cl)c5Cl)n4C)C3)c21 [Example 17] |  |  |  | < 50 | 50 to 200 | < 50 |
| CCn1nc(C)cc1C(=O)Nc1nc2cc(C(N)=O)cc(OCCCNC(=O)[C@H](CC(=O)O)NC(=O)[C@H](CC(=O)O)NC(=O)[C@H](CCCNC(=N)N)NC(=O)[C@H](CC(=O)O)NC(=O)[C@H](CC(=O)O)NC(=O)[C@H](CC(=O)O)NC(=O)[C@H](CCCNC(=N)N)NC(=O)[C@H](CC(=O)O)NC(=O)CCCN3CCc4c(nc(C(=O)Nc5cccc(-c6cccc(NC(=O)c7nc8c(n7C)CCN(CCCC(=O)O)C8)c6Cl)c5Cl)n4C)C3)c2n1C/C=C/Cn1c2nc(-c3cc(C)nn3CC)ncc2c2cc(C(N)=O)cc(OC)c21 [Example 22] |  |  |  | < 50 | < 50 | < 50 |
| CCn1nc(C)cc1C(=O)Nc1nc2cc(C(N)=O)cc(OC)c2n1C/C=C/Cn1c(NC(=O)c2cc(C)nn2CC)nc2cc(C(N)=O)cc(OCCCNC(=O)[C@H](CC(=O)O)NC(=O)[C@H](CC(=O)O)NC(=O)[C@H](CC(=O)O)NC(=O)[C@H](CC(=O)O)NC(=O)[C@H](CC(=O)O)NC(=O)CCCN3CCc4c(nc(C(=O)Nc5cccc(-c6cccc(NC(=O)c7nc8c(n7C)CCN(CCCC(=O)O)C8)c6Cl)c5Cl)n4C)C3)c21 [Example 13] |  |  |  | < 50 | 50 to 200 | < 50 |
| CCn1nc(C)cc1C(=O)Nc1nc2cc(C(N)=O)cc(OCCCNC(=O)[C@H](CC(=O)O)NC(=O)[C@H](CC(=O)O)NC(=O)[C@H](CCCNC(N)=O)NC(=O)[C@H](CC(=O)O)NC(=O)CCCN3CCc4c(nc(C(=O)Nc5cccc(-c6cccc(NC(=O)c7nc8c(n7C)CCN(CCCC(=O)O)C8)c6Cl)c5Cl)n4C)C3)c2n1C/C=C/Cn1c2nc(-c3cc(C)nn3CC)ncc2c2cc(C(N)=O)cc(OC)c21 [Example 21] |  |  |  | < 50 | 50 to 200 | < 50 |
| CCn1nc(C)cc1C(=O)Nc1nc2cc(C(N)=O)cc(OC)c2n1C/C=C/Cn1c(NC(=O)c2cc(C)nn2CC)nc2cc(C(N)=O)cc(OCCCNC(=O)[C@H](CC(=O)O)NC(=O)[C@H](CC(=O)O)NC(=O)[C@H](CCCNC(=N)N)NC(=O)[C@H](CC(=O)O)NC(=O)[C@H](CC(=O)O)NC(=O)[C@H](CC(=O)O)NC(=O)[C@H](CCCNC(=N)N)NC(=O)[C@H](CC(=O)O)NC(=O)CCCN3CCc4c(nc(C(=O)Nc5cccc(-c6cccc(NC(=O)c7nc8c(n7C)CCN(CCCC(=O)O)C8)c6Cl)c5Cl)n4C)C3)c21 [Example 15] |  |  |  | < 50 | 50 to 200 | < 50 |

The next lines start with results.

| IC50 (PD-L1 [1]) [nM] | IC50 (PD-1/PD-L1) [nM] | IC50 (PD-L1 [2]; high PD-L1 cells, 20 hours, read-out: PD-L1 Internalization IC50 (nM), High PD-L1) [nM] | Structure (SMILES) | IC50 (PD-L1 [2]) [nM] | EC50 [3] [nM] | EC50 [4] [nM] |
| --- | --- | --- | --- | --- | --- | --- |
| 100 to 1000 | 0.1 to 1 |  | Cc1c(Nc2nccc3cc(CN4CC[C@@H](O)C4)cnc23)cccc1-c1cccc(Nc2nccc3cc(CN4CC[C@@H](C(=O)O)C4)cnc23)c1C [Example P18] |  |  |  |
| < 100 | 0.1 to 1 |  | Cc1c(-c2nc3cc(CN4CC[C@@H](C(=O)O)C4)cc(C#N)c3o2)cccc1-c1cccc(NC(=O)c2nc3c(n2C)CCN(C)C3)c1Cl [Example P22] |  |  |  |
| < 100 | 0.1 to 1 |  | Cc1c(NC(=O)c2nc3c(n2C)CCN(C2CCOCC2)C3)cccc1-c1cccc(NC(=O)c2nc3c(n2C)CCN(C)C3)c1Cl [Example P9] |  |  |  |
| 100 to 1000 | 0.1 to 1 |  | Cc1c(Nc2nccc3cc(CN4CC[C@@H](O)C4)cnc23)cccc1-c1cccc(-c2nc3cc(CN4CC(C(=O)O)C4)cc(C#N)c3o2)c1C [Example P20] |  |  |  |
